From patent publication US8673910B2, “Proteasome inhibitors for selectively inducing apoptosis in cancer cells” (H. Lee Moffitt Cancer Center and Research Institute, priority 2008, dated 2014)
Read-outs that look alike come from different tables or passages of the source.

Assays:
[1] = target: T1, chymotrypsin-like (CT-L) activity of purified 20S rabbit proteasome (Oryctolagus cuniculus, UniProt G1T4Q9); assay: Proteolytic activity of purified 20S proteasome, fluorogenic substrate Suc-Leu-Leu-Val-Tyr-AMC; type: biochemical; conditions: for proteasome (chymotrypsin-like) inhibitory activity, in words / IC50: purified rabbit 20S proteasome; for decrease of proteasome inhibition activity relative to comparator compound: 14u, 14v vs linear acetic acid analogues, 14q vs lead compound 10a
T1 sequence (G1T4Q9 1-263): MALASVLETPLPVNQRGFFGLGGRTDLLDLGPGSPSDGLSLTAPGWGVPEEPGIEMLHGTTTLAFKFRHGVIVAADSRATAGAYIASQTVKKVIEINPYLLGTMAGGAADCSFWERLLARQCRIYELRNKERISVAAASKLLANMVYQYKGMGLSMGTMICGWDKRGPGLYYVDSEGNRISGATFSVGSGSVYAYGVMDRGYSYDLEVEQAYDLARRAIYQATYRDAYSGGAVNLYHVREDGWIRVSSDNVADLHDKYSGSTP

[2] = target: T2, CT-L activity of the proteasome in MCF-7 human breast cancer cells (Homo sapiens, UniProt P20618+P28074); assay: Proteolytic activity in cell lysates of treated intact MCF-7 cells; type: cell-based; conditions: intact cells treated 16 h, CT-L measured in cell lysates; two determinations where two values
T2 construct: endogenous in cells; host or cells: MCF-7
Protocol: Human MCF-7 breast cancer cells were cultured in DMEM medium containing 10% fetal calf serum (FCS) and 100 units/ml of penicillin and 100 μg/ml of streptomycin. Cells were maintained at 37° C. in a humidified incubator in an atmosphere of 5% CO2. Cells were treated with different concentrations of PI-083, YG1-080, YG1-075, HL2-090-2, HL2-090-4, HL2-090-6, and HL2-090-9 or vehicle control (DMSO) for 16 h.
Intact cells were treated with compounds and lysates prepared as described above. Cell lysates (5 μg) was incubated with 20 μM Suc-Leu-Leu-Val-Tyr-AMC for the CT-L activity for 1 h at 37° C. in 100 μl of assay buffer (50 mM Tris-HCl, pH 7.6). After incubation, production of hydrolyzed 7-amido-4-methyl-coumarin (AMC) groups was measured using a WALLAC Victor^2 1420 Multilabel Counter with an excitation filter of 355 nm and an emission filter of 460 nm (Perkin Elmer Life Sciences, Turku, Finland).

[3] = system: MCF-7 breast cancer cells; assay: MTT metabolism assay; type: cell-based, human; conditions: MCF-7, 72 h (Table 6), read-out: IC50 for cell viability measured by MTT assay in MCF-7 human breast cancer cells
Protocol: Cells were plated in 96-well plates in 100 μl medium and allowed to attach overnight. […] Media was aspirated after 24 or 72 hours and replaced with 100 μl complete media containing 1 mg/ml MTT and incubated for three hours at 37° C. in 5% CO2 humidified incubator. Media was then aspirated and DMSO was added. Cells were incubated for 10 min at room temperature while shaking, and the absorbance was determined at 540 nm using a μQuant spectrophotometric plate reader (Bio-TEK, Winooski, Vt.).
Cells were plated in 96-well plates in 100 μl medium and allowed to attach overnight. Cells were then incubated for 72 h with varying concentrations of PI-083, YG1-080, YG1-075, HL2-090-2, HL2-090-4, HL2-090-6, and HL2-090-9 or vehicle control (DMSO). Media was aspirated and replaced with 100 μl complete media containing 1 mg/ml MTT and incubated for three hours at 37° C. in 5% CO2 humidified incubator. Media was then aspirated and DMSO was added. Cells were incubated for 10 min at room temperature while shaking, and the absorbance was determined at 540 nm using a μQuant spectrophotometric plate reader (Bio-TEK, Winooski, Vt.).

[4] = hydronaphthoquinone sulfonamides (Table 9), read-out: IC50 (μM), inhibition of chymotrypsin-like activity
[5] = PI-083 derivatives (Table 7, naphthoquinone library), read-out: IC50 (μM) Chymotrypsin-like activity

| proteasome (chymotrypsin-like) inhibitory activity, in words [1] | IC50 [1, 4] | Compound | other results |
| --- | --- | --- | --- |
| the inhibitory activity totally lost | – | CCSc1cc(NS(=O)(=O)c2cccs2)c2ccccc2c1O [Compound 14j, N-(3-(ethylthio)-4-hydroxynaphthalen-1-yl)thiophene-2-sulfonamide] | – |
| diminished the inhibitory activity | – | O=C(O)COc1cc(NS(=O)(=O)c2cccs2)c2ccccc2c1O [Compound 10d, 2-(1-hydroxy-4-(thiophene-2-sulfonamido)naphthalen-2-yloxy)acetic acid] | – |
| – | 4.83 ± 0.79 µM | O=C(O)CSc1cc(NS(=O)(=O)c2ccc3ccccc3c2)c2ccccc2c1O [Compound 14q, 2-(1-hydroxy-4-(naphthalene-2-sulfonamido)naphthalen-2-ylthio)acetic acid] | decrease of proteasome inhibition activity relative to comparator compound [1]: 3 fold |
| – | – | Cc1noc(NS(=O)(=O)c2ccc(NC3=C(Cl)C(=O)c4ccccc4C3=O)cc2)c1C [Compound 2h, 4-(3-chloro-1,4-dioxo-1,4-dihydronaphthalen-2-ylamino)-N-(3,4-dimethylisoxazol-yl)-benzenesulfonamide] | melting point: 208 to 210 °C; IC50 [2]: > 10 µM; IC50 [1, 5]: 6.4 µM |
| – | 9.11 ± 0.47 µM | CC(Sc1cc(NS(=O)(=O)c2ccc3ccccc3c2)c2ccccc2c1O)C(=O)O (stereo not shown) [Compound 14v, 2-(1-hydroxy-4-(naphthalene-2-sulfonamido)naphthalen-2-ylthio)propanoic acid] | decrease of proteasome inhibition activity relative to comparator compound [1]: ~2 fold |
| – | 5.27 ± 2.23 µM | CCOC(=O)CSc1cc(NS(=O)(=O)c2ccccc2)c2ccccc2c1O [Compound 9c, Ethyl 2-(1-hydroxy-4-(phenylsulfonamido)naphthalen-2-ylthio)acetate] | – |
| – | 3.75 ± 0.3 µM | O=C(O)CSc1cc(NS(=O)(=O)c2ccc(Cl)cc2)c2ccccc2c1O [Compound 14p, 2-(4-(4-chlorophenylsulfonamido)-1-hydroxynaphthalen-2-ylthio)acetic acid] | – |
| – | 3.57 ± 1.53 µM | CCOC(=O)CSc1cc(NS(=O)(=O)c2ccc([N+](=O)[O-])cc2)c2ccccc2c1O [Compound 9e, Ethyl 2-(1-hydroxy-4-(4-nitrophenylsulfonamido)naphthalen-2-ylthio)acetate] | – |
| loss of the inhibitory activity | – | O=S(=O)(Nc1ccc(O)c2ccccc12)c1cccs1 [Compound 3, N-(4-hydroxynaphthalen-1-yl)thiophene-2-sulfonamide] | – |
| – | 2.07 ± 0.55 µM | O=C(O)CSc1cc(NS(=O)(=O)c2cc(Cl)c(Cl)s2)c2ccccc2c1O [Compound 14n, 2-(4-(4,5-dichlorothiophene-2-sulfonamido)-1-hydroxynaphthalen-2-ylthio)acetic acid] | – |
| – | > 10 µM | O=C(O)CCSc1cc(NS(=O)(=O)c2cccs2)c2ccccc2c1O [Compound 10b, 3-(1-hydroxy-4-(thiophene-2-sulfonamido)naphthalen-2-ylthio)propanoic acid] | – |
| – | 1.18 ± 0.3 µM | COC(=O)CCSc1cc(NS(=O)(=O)c2cc(Cl)c(Cl)s2)c2ccccc2c1O [Compound 14m, Methyl-3-(4-(4,5-dichlorothiophene-2-sulfonamido)-1-hydroxynaphthalen-2-ylthio)propanoate] | – |
| – | – | O=C1C(Cl)=C(Nc2ccc(S(=O)(=O)Nc3nccs3)cc2)C(=O)c2ccccc21 [Compound 2s, 4-(3-chloro-1,4-dioxo-1,4-dihydronaphthalen-2-ylamino)-N-(thiazol-2-yl)benzene-sulfonamide] | melting point: 286 to 288 °C; IC50 [2]: > 10 µM; IC50 [1, 5]: 3.3 µM |
| – | – | Cc1nnc(NS(=O)(=O)c2ccc(NC3=C(Cl)C(=O)c4ccccc4C3=O)cc2)s1 [Compound 2f, 4-(3-chloro-1,4-dioxo-1,4-dihydronaphthalen-2-ylamino)-N-(5-methyl-1,3,4-thiadiazol-2-yl)benzenesulfonamide] | melting point: 220 °C (dec.); IC50 [2]: > 10 µM; IC50 [1, 5]: 3.9 µM |
| – | – | Cc1cc(NS(=O)(=O)c2ccc(NC3=C(Cl)C(=O)c4ccccc4C3=O)cc2)no1 [Compound 2d, 4-(3-chloro-1,4-dioxo-1,4-dihydronaphthalen-2-ylamino)-N-(5-methylisoxazol-3-yl)benzenesulfonamide] | melting point: 215 to 217 °C; IC50 [2]: > 10 µM; IC50 [1, 5]: 5.9 µM |
| – | 2.19 ± 0.23 µM | O=C(O)c1ccccc1Sc1cc(NS(=O)(=O)c2ccc(-c3ccccc3)cc2)c2ccccc2c1O [Compound 14t, 2-(4-(biphenyl-4-ylsulfonamido)-1-hydroxynaphthalen-2-ylthio)benzoic acid] | – |
| – | 8.57 ± 0.67 µM | CC(Sc1cc(NS(=O)(=O)c2ccc(Cl)cc2)c2ccccc2c1O)C(=O)O (stereo not shown) [Compound 14u, 2-(4-(4-chlorophenylsulfonamido)-1-hydroxynaphthalen-2-ylthio)propanoic acid] | decrease of proteasome inhibition activity relative to comparator compound [1]: ~2 fold |
| – | 4.99 ± 2.08 µM | COC(=O)CCSc1cc(NS(=O)(=O)c2cccs2)c2ccccc2c1O [Compound 9b, Methyl 3-(1-hydroxy-4-(thiophene-2-sulfonamido)naphthalen-2-ylthio)propanoate] | – |
| – | – | O=C1C(Cl)=C(Nc2ccc(S(=O)(=O)Nc3cnn(-c4ccccc4)c3)cc2)C(=O)c2ccccc21 [Compound 2b, 4-(3-chloro-1,4-dioxo-1,4-dihydronaphthalen-2-ylamino)-N-(1-phenyl-1H-pyrazol-4-yl)benzenesulfonamide] | melting point: 230 to 231 °C; IC50 [2]: > 10 µM; IC50 [1, 5]: 7.4 µM |
| the inhibitory activity totally lost | – | O=S(=O)(Nc1cc(SCCO)c(O)c2ccccc12)c1cccs1 [Compound 14k, N-(4-hydroxy-3-(2-hydroxyethylthio)naphthalen-1-yl)thiophene-2-sulfonamide] | – |
| diminished the inhibitory activity | – | O=C(O)CS(=O)(=O)c1cc(NS(=O)(=O)c2cccs2)c2ccccc2c1O [Compound 10f, 2-(1-hydroxy-4-(thiophene-2-sulfonamido)naphthalen-2-ylsulfonyl)acetic acid] | – |
| – | 7.33 ± 2.82 µM | CCOC(=O)CSc1cc(NS(=O)(=O)c2cccs2)c2ccccc2c1O [Compound 9a, Ethyl 2-(1-hydroxy-4-(thiophene-2-sulfonamido)naphthalen-2-ylthio)acetate] | – |

| Compound | proteasome (chymotrypsin-like) inhibitory activity, in words [1] | IC50 [1, 4] | other results |
| --- | --- | --- | --- |
| O=C(O)CSc1cc(NS(=O)(=O)c2cccs2)c2ccccc2c1O [Compound 10a, 2-(1-hydroxy-4-(thiophene-2-sulfonamido)naphthalen-2-ylthio)acetic acid] | comparable proteasome inhibition activity to the commercial sample HLM-008182 | 1.3 ± 0.76 µM | IC50 ([3]; Homo sapiens, MCF7, 72 h): 7.67 ± 1.61 µM; IC50 [3]: 10.9 ± 2.77 µM; IC50 ([1]; hydronaphthoquinone sulfonamides (Table 9), listed as HLM-008182, read-out: IC50 (μM), inhibition of chymotrypsin-like activity): 0.65 ± 0.4 µM |
| O=S(=O)(Nc1cc(Sc2ncn[nH]2)c(O)c2ccccc12)c1cccs1 [Compound 14e, N-(3-(1H-1,2,4-triazol-5-ylthio)-4-hydroxynaphthalen-1-yl)thiophene-2-sulfonamide] | comparable inhibition potency against proteasome to the lead compound | – | – |
| Cn1nnnc1Sc1cc(NS(=O)(=O)c2cccs2)c2ccccc2c1O [Compound 14d, N-(4-hydroxy-3-(1-methyl-1H-tetrazol-5-ylthio)naphthalen-1-yl)thiophene-2-sulfonamide] | comparable inhibition potency against proteasome to the lead compound | 4.25 ± 2.13 µM | – |
